Experimental data published in ChEMBL document CHEMBL1201862, “PubChem BioAssay data set” (2004).
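Dose response: 5 concentrations. Exposure: 48 h. Format: 96-well plates. Endpoint: linear interpolation; highest concentration if not reached. GI50 marks 50% less growth.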 Active and inactive are the calls of the source. Cut-off read from the data, not from the text of the source: active = GI50 up to about 1.1 µM and inactive = higher.

Tests used:
Experiment in all cases: NCI-60 cell line screen, 48 h
MDA-MB-435 = system: MDA-MB-435
OVCAR-3 = system: OVCAR-3
LOX IMVI = system: LOX IMVI
SK-MEL-2 = system: SK-MEL-2
NCI-H522 = system: NCI-H522
UACC-62 = system: UACC-62
HOP-62 = system: HOP-62
KM12 = system: KM12
MOLT-4 = system: MOLT-4
SK-MEL-5 = system: SK-MEL-5
OVCAR-4 = system: OVCAR-4
HT-29 = system: HT-29
A498 = system: A498
NCI-H23 = system: NCI-H23
Malme-3M = system: Malme-3M
OVCAR-8 = system: OVCAR-8
SNB-75 = system: SNB-75

SMILES | GI50 (MDA-MB-435) | GI50 (OVCAR-3) | GI50 (LOX IMVI) | GI50 (SK-MEL-2) | GI50 (NCI-H522) | GI50 (UACC-62) | GI50 (HOP-62) | GI50 (KM12) | GI50 (MOLT-4) | GI50 (SK-MEL-5) | GI50 (OVCAR-4) | GI50 (HT-29) | GI50 (A498) | GI50 (NCI-H23) | GI50 (Malme-3M) | GI50 (OVCAR-8) | GI50 (SNB-75)
COc1ccc2cc(C(=O)NCCCNC(=O)c3ccc4c(OC)c(OC)ccc4c3)ccc2c1OC | > 100 µM (inactive) | > 100 µM (inactive) | > 100 µM (inactive) | > 100 µM (inactive) | > 100 µM (inactive) | > 100 µM (inactive) | > 100 µM (inactive) | > 100 µM (inactive) | > 100 µM (inactive) | > 100 µM (inactive) | > 100 µM (inactive) | > 100 µM (inactive) | > 100 µM (inactive) | > 100 µM (inactive) |  |  | 
Cc1c(-c2ccccc2)[nH]c2cc(Cl)ccc2c1=O | 12 µM (inactive) | 56.9 µM (inactive) | 89.5 µM (inactive) | 37.8 µM (inactive) |  | 54.6 µM (inactive) | 23 µM (inactive) | 0.74 µM (active) | > 100 µM (inactive) | 35.1 µM (inactive) | 22.9 µM (inactive) | > 100 µM (inactive) | > 100 µM (inactive) | 36.3 µM (inactive) | 65 µM (inactive) |  | 
COC(O)C(=O)c1c2c(cc3c1CCC3)CCCC2 (stereo unspecified) | 17.4 µM (inactive) | 4.65 µM (inactive) | 1.99 µM (inactive) | 11.4 µM (inactive) | 3.84 µM (inactive) | 3.47 µM (inactive) | 17.1 µM (inactive) | 8.59 µM (inactive) | 3.38 µM (inactive) | 4.47 µM (inactive) | 7.31 µM (inactive) | 2.69 µM (inactive) | 13.5 µM (inactive) | 10.7 µM (inactive) | 14 µM (inactive) | 7.87 µM (inactive) | 8.17 µM (inactive)
c1cc2c(s1)-c1sccc1C21OCCO1 | > 100 µM (inactive) | > 100 µM (inactive) | > 100 µM (inactive) | 60 µM (inactive) | 82.8 µM (inactive) | 19.5 µM (inactive) | > 100 µM (inactive) | > 100 µM (inactive) | > 100 µM (inactive) | 53.5 µM (inactive) | > 100 µM (inactive) | 97.7 µM (inactive) |  | > 100 µM (inactive) | 67.1 µM (inactive) | > 100 µM (inactive) | 
Cc1nc2ccccc2n1Cc1nnc2n1N=C(c1ccccc1)CS2 | 32.7 µM (inactive) | 35.2 µM (inactive) |  | 17 µM (inactive) | 22.1 µM (inactive) | 23.9 µM (inactive) | 47.3 µM (inactive) | 31.2 µM (inactive) | 27.2 µM (inactive) | 29.2 µM (inactive) | 45.1 µM (inactive) | 30.5 µM (inactive) | 43.8 µM (inactive) | 33.2 µM (inactive) | 49.9 µM (inactive) |  | 18 µM (inactive)
COc1ccc(C2C=C(c3ccc(C)cc3)N(c3ccc(OC)cc3[N+](=O)[O-])C3C(=O)OC(=O)C23)c(OC)c1 (stereo unspecified) | 44.3 µM (inactive) | 20.2 µM (inactive) | 25.5 µM (inactive) | 24 µM (inactive) | 10.4 µM (inactive) | 49.4 µM (inactive) | 96.6 µM (inactive) | 7.8 µM (inactive) | 32.6 µM (inactive) | 64.6 µM (inactive) | 62.5 µM (inactive) | 24.3 µM (inactive) | 67 µM (inactive) | 52.4 µM (inactive) | 11.1 µM (inactive) | 16.2 µM (inactive) | 20.2 µM (inactive)
C=C1C(=O)O[C@H]2C/C(C=O)=C\[C@H]3O[C@H]3/C(COC(=O)C(C)C)=C/CC12 (stereo partly specified) | 4.25 µM (inactive) | 6.49 µM (inactive) | 3.21 µM (inactive) |  | 3.39 µM (inactive) | 2.2 µM (inactive) | 13.6 µM (inactive) | 5.46 µM (inactive) | 3.06 µM (inactive) | 9.42 µM (inactive) |  | 3.07 µM (inactive) |  | 4.97 µM (inactive) | 10.3 µM (inactive) | 3.14 µM (inactive) | 
O=[N+]([O-])c1ccc(-c2cn(-c3ccc(Cl)cc3)cn2)cc1 | > 100 µM (inactive) | 19.1 µM (inactive) | 56.4 µM (inactive) | > 100 µM (inactive) | 3.76 µM (inactive) | 92 µM (inactive) | 18.2 µM (inactive) | > 100 µM (inactive) | > 100 µM (inactive) | 34.2 µM (inactive) |  | > 100 µM (inactive) | 40.7 µM (inactive) | 20.4 µM (inactive) | > 100 µM (inactive) | 36.6 µM (inactive) | 8.57 µM (inactive)
